Measured values: article PMC12396409, “Screening and hit evaluation of a microbial metabolite library against the pathogenic Plasmodium falciparum and Toxoplasma gondii parasites” (International Journal for Parasitology: Drugs and Drug …, 2025)
Where two headings read alike, the source gives them in different places.

Key:
[1] = system: P. falciparum 3D7 parasites; test: P. falciparum growth inhibition assay, 2-cycle (120 h treatment), delayed-death screen and dose-response; type: cell-based, Plasmodium falciparum; settings: for activity at 2 µg/mL: Plasmodium falciparum, 3D7
[2] = system: T. gondii RH strain (RH-Tub-eYFP) tachyzoites; test: microbe, parasite or virus in culture; type: cell-based, Toxoplasma gondii; settings: 72 h; for percent parasite growth at 2 µg/mL: Toxoplasma gondii
[3] = system: P. falciparum 3D7 parasites; test: P. falciparum growth inhibition assay, 1-cycle (72 h treatment), SYBR DNA staining (library screen at 2 μg/mL and dose-response); type: cell-based, Plasmodium falciparum; settings: for activity at 2 µg/mL: Plasmodium falciparum, 3D7
[4] = P. falciparum, 120 h, parasite screen 2 μg/mL, % growth, replicate 1
[5] = P. falciparum, 120 h, parasite screen 2 μg/mL, % growth, replicate 2
[6] = T. gondii, parasite screen 2 μg/mL, % growth, replicate 1
[7] = T. gondii, parasite screen 2 μg/mL, % growth, replicate 2
[8] = P. falciparum, 72 h, parasite screen 2 μg/mL, % growth, replicate 1
[9] = P. falciparum, 72 h, parasite screen 2 μg/mL, % growth, replicate 2
[10] = P. falciparum 3D7, 120 h, parasite screen at 2 μg/mL, % growth, replicate 1
[11] = P. falciparum 3D7, 120 h, parasite screen at 2 μg/mL, % growth, replicate 2
[12] = T. gondii, parasite screen at 2 μg/mL, % growth, replicate 1
[13] = T. gondii, parasite screen at 2 μg/mL, % growth, replicate 2
[14] = P. falciparum 3D7, 72 h, parasite screen at 2 μg/mL, % growth, replicate 1
[15] = P. falciparum 3D7, 72 h, parasite screen at 2 μg/mL, % growth, replicate 2

CC1=C[C@@H]2/C=C(/C)CCC(=O)[C@@H](O)CCC(=O)[C@]23C(=O)N[C@@H](CC(C)C)[C@@H]3[C@@H]1C [Aspochalasin M]
Pf_120h_%Growth_Rep1 ([1]; library screen at 2 μg/mL, 120 h, % growth, replicate 1): 80.74%
Pf_120h_%Growth_Rep2 ([1]; library screen at 2 μg/mL, 120 h, % growth, replicate 2): 79.20%
Tg_72h_%Growth_Rep1 ([2]; library screen at 2 μg/mL, % growth, replicate 1): 143.85%
Tg_72h_%Growth_Rep2 ([2]; library screen at 2 μg/mL, % growth, replicate 2): 96.90%
Pf_72h_%Growth_Rep1 ([3]; library screen at 2 μg/mL, 72 h, % growth, replicate 1): 78.34%
Pf_72h_%Growth_Rep2 ([3]; library screen at 2 μg/mL, 72 h, % growth, replicate 2): 81.89%

O=c1cc2ccocc-2o1 [BIA-K1792]
Pf_120h_%Growth_Rep1 ([1]; P. falciparum 3D7, 120 h, library screen at 2 μg/mL, % growth, replicate 1): 89.46%
Pf_120h_%Growth_Rep2 ([1]; P. falciparum 3D7, 120 h, library screen at 2 μg/mL, % growth, replicate 2): 104.67%
Tg_72h_%Growth_Rep1 ([2]; T. gondii RH, library screen at 2 μg/mL, % growth, replicate 1): 114.69%
Tg_72h_%Growth_Rep2 ([2]; T. gondii RH, library screen at 2 μg/mL, % growth, replicate 2): 93.25%
Pf_72h_%Growth_Rep1 ([3]; P. falciparum 3D7, 72 h, library screen at 2 μg/mL, % growth, replicate 1): 80.31%
Pf_72h_%Growth_Rep2 ([3]; P. falciparum 3D7, 72 h, library screen at 2 μg/mL, % growth, replicate 2): 115.37%

CC1(C)C[C@]23[C@@H]4COC(=O)[C@H]2CC[C@H]1[C@@H]3CC4=O [Quadrone]
activity at 2 µg/mL ([1]; P. falciparum, 120 h, parasite screen 2 μg/mL, % growth, replicate 1, read-out: Pf_120h_%Growth_Rep1): 7%
activity at 2 µg/mL ([1]; P. falciparum, 120 h, parasite screen 2 μg/mL, % growth, replicate 2, read-out: Pf_120h_%Growth_Rep2): 13.5%
percent parasite growth at 2 µg/mL ([2]; T. gondii, parasite screen 2 μg/mL, % growth, replicate 1, read-out: Tg_72h_%Growth_Rep1): 48.4%
percent parasite growth at 2 µg/mL ([2]; T. gondii, parasite screen 2 μg/mL, % growth, replicate 2, read-out: Tg_72h_%Growth_Rep2): 61.5%
activity at 2 µg/mL ([3]; P. falciparum, 72 h, parasite screen 2 μg/mL, % growth, replicate 1, read-out: Pf_72h_%Growth_Rep1): 19%
activity at 2 µg/mL ([3]; P. falciparum, 72 h, parasite screen 2 μg/mL, % growth, replicate 2, read-out: Pf_72h_%Growth_Rep2): 18.9%

CCCCC[C@@]1(OC(=O)CCC(=O)O)CC[C@]2(CC[C@H](C)[C@@H](C/C=C(C)/C=C/[C@H](O)[C@@H](C)/C=C/C(=O)O)O2)O[C@H]1/C=C/C(C)=C/C(=O)O [Reveromycin D]
Pf_120h_%Growth_Rep1 [1, 4]: 51.02%
Pf_120h_%Growth_Rep2 [1, 5]: 15.46%
Tg_72h_%Growth_Rep1 [2, 6]: 109.29%
Tg_72h_%Growth_Rep2 [2, 7]: 94.72%
Pf_72h_%Growth_Rep1 [3, 8]: 62.63%
Pf_72h_%Growth_Rep2 [3, 9]: 21.41%

COC(=O)/C(=C1/OC(=O)C(c2ccccc2)=C1O)c1ccccc1 [Vulpinic acid]
activity at 2 µg/mL ([1]; P. falciparum, 120 h, screen at 2 μg/mL, replicate 1, read-out: Pf_120h_%Growth_Rep1): 84.9%
activity at 2 µg/mL ([1]; P. falciparum, 120 h, screen at 2 μg/mL, replicate 2, read-out: Pf_120h_%Growth_Rep2): 103%
percent parasite growth at 2 µg/mL ([2]; T. gondii, screen at 2 μg/mL, replicate 1, read-out: Tg_72h_%Growth_Rep1): 109%
percent parasite growth at 2 µg/mL ([2]; T. gondii, screen at 2 μg/mL, replicate 2, read-out: Tg_72h_%Growth_Rep2): 97.7%
activity at 2 µg/mL ([3]; P. falciparum, 72 h, screen at 2 μg/mL, replicate 1, read-out: Pf_72h_%Growth_Rep1): 79.7%
activity at 2 µg/mL ([3]; P. falciparum, 72 h, screen at 2 μg/mL, replicate 2, read-out: Pf_72h_%Growth_Rep2): 129%

C[C@@H](O)[C@H]1C(=O)N2C(C(=O)O)=C(S[C@@H]3CN[C@H](CNS(N)(=O)=O)C3)[C@H](C)[C@H]12 [Doripenem]
activity at 2 µg/mL ([1]; library screen at 2 μg/mL, 120 h, % growth, replicate 1, read-out: Pf_120h_%Growth_Rep1): 85.1%
activity at 2 µg/mL ([1]; library screen at 2 μg/mL, 120 h, % growth, replicate 2, read-out: Pf_120h_%Growth_Rep2): 121%
percent parasite growth at 2 µg/mL ([2]; library screen at 2 μg/mL, % growth, replicate 1, read-out: Tg_72h_%Growth_Rep1): 119%
percent parasite growth at 2 µg/mL ([2]; library screen at 2 μg/mL, % growth, replicate 2, read-out: Tg_72h_%Growth_Rep2): 89.3%
activity at 2 µg/mL ([3]; library screen at 2 μg/mL, 72 h, % growth, replicate 1, read-out: Pf_72h_%Growth_Rep1): 81.9%
activity at 2 µg/mL ([3]; library screen at 2 μg/mL, 72 h, % growth, replicate 2, read-out: Pf_72h_%Growth_Rep2): 66.8%

CC(C)=CC1CC(C)C2(CCC3(C)CC4C(C(=O)CC4(C)O)C(C=O)=CCC32)O1 (stereo not shown) [BIA-O1063]
Pf_120h_%Growth_Rep1 [1, 10]: 10.48%
Pf_120h_%Growth_Rep2 [1, 11]: 11.00%
Tg_72h_%Growth_Rep1 [2, 12]: 5.87%
Tg_72h_%Growth_Rep2 [2, 13]: 0.78%
Pf_72h_%Growth_Rep1 [3, 14]: 4.64%
Pf_72h_%Growth_Rep2 [3, 15]: 5.89%

O=C1Cc2ccccc2N1 [BIA-O1735]
Pf_120h_%Growth_Rep1 [1, 10]: 73.62%
Pf_120h_%Growth_Rep2 [1, 11]: 127.66%
Tg_72h_%Growth_Rep1 [2, 12]: 124.39%
Tg_72h_%Growth_Rep2 [2, 13]: 90.71%
Pf_72h_%Growth_Rep1 [3, 14]: 82.92%
Pf_72h_%Growth_Rep2 [3, 15]: 80.95%

COc1cc(/C=C/C(=O)O)cc(OC)c1O [Sinapic acid]
Pf_120h_%Growth_Rep1 [1, 4]: 115.97%
Pf_120h_%Growth_Rep2 [1, 5]: -9.79%
Tg_72h_%Growth_Rep1 [2, 6]: 101.84%
Tg_72h_%Growth_Rep2 [2, 7]: 75.80%
Mean ([3]; P. falciparum, 72 h, 2 μg/mL, mean of both replicates, growth (% of control)): 45.98
Pf_72h_%Growth_Rep1 [3, 8]: 90.37%
Pf_72h_%Growth_Rep2 [3, 9]: 1.58%
